In ChEMBL document CHEMBL1201862, “PubChem BioAssay data set” (2004):
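The compound was tested at five concentrations on cells cultured in 96-well plates, with a 48-hour exposure period. GI50 marks 50% less growth.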 Calls of active or inactive are those of the source. Cut-off read from the data, not from the text of the source: active = GI50 up to about 1.1 µM and inactive = higher.

Key:
Test in all cases: DTP human tumour cell line panel, 48 h
OVCAR-3 = tested on: OVCAR-3
TK-10 = tested on: TK-10
DMS-273 = tested on: DMS-273
RPMI-8226 = tested on: RPMI-8226
RXF 393 = tested on: RXF 393
HCC 2998 = tested on: HCC 2998
KM-20L2 = tested on: KM-20L2
SNB-19 = tested on: SNB-19
SF-268 = tested on: SF-268
DMS-114 = tested on: DMS-114

Measured: GI50

Cn1nc2ccc3nccc(NCCNCCCl)c3c2n1
inactive: OVCAR-3 > 100 µM | TK-10 > 100 µM | DMS-273 > 100 µM | RPMI-8226 > 100 µM | RXF 393 > 100 µM | HCC 2998 > 100 µM | KM-20L2 > 100 µM | SNB-19 > 100 µM | SF-268 > 100 µM | DMS-114 > 100 µM
